In paper PMC7615677 (Science translational medicine, 2023):
Like-named read-outs stand apart in the source and are kept apart here.

What was measured:
L. infantum = test: PK/PD analysis of liver burden versus cumulative unbound AUC; format: in vivo, hamsters; conditions: Hamster – L. infantum; estimated using the fitted parameters
Source text: To determine the correlation between the pharmacokinetic (PK) and pharmacodynamic (PD) data, repeat dose profiles in mice and hamsters following single and twice daily dosing were simulated using the fitted parameters.
Other parameters were less well correlated to efficacy, presumably given that none reflect the cumulative exposure profile with an extended treatment regimen. […] Results for mice infected with L. donovani were similar to those for L. infantum (Table S15).

[1] = In vitro cytotoxicity assay; format: cell-based; conditions: human, HepG2 human hepatocellular carcinoma cells
[2] = In vitro cytotoxicity assay; format: cell-based; conditions: mouse, primary mouse macrophages (PMM)
[3] = system: Salmonella typhimurium strains TA1535, TA1537, TA98 and TA100, and Escherichia coli WP2 uvrA (pKM101); test: Ames test; format: cell-based; conditions: absence or presence of rat liver S9
Procedure: Salmonella typhimurium strains TA1535, TA1537, TA98 and TA100, and Escherichia coli WP2 uvrA (pKM101) were employed. Positive controls were respectively sodium azide (2 μg/plate), 9-amino acridine (50 μg/plate), 2-nitrofluorene (1 μg/plate), sodium azide (2 μg/plate) and 4-nitroquinoline-1-oxide (2 μg/plate). The negative control was DMSO.

CHO-K1 cells = test: In vitro micronucleus assay; format: cell-based; conditions: absence or presence of rat liver S9
Procedure: The treatment time was 24 h without metabolic activation (rat liver S9) and 3 h with activation. The positive controls were bleomycin sulfate and cyclophosphamide, respectively.

5-HT1A = target: T1, 5-HT1A (Homo sapiens, UniProt P08908); test: In vitro pharmacology panel (Eurofins); format: binding; conditions: read-out: activity (% of DMSO control)
T1 construct: purchased Eurofins (Cerep/DiscoverX SafetyScreen44 in vitro pharmacology panel)
Source text: (§1) Listed values represent the percent change relative to the DMSO control activity. When an IC50 had to be determined, eight different concentrations were included. All values are the mean of assay readout duplicates.

5-HT1B = target: T2, 5-HT1B (Rattus norvegicus, UniProt P28564); test: In vitro pharmacology panel (Eurofins); format: binding; conditions: read-out: activity (% of DMSO control)
T2 construct: purchased Eurofins (Cerep/DiscoverX SafetyScreen44 in vitro pharmacology panel)
Source text: as §1

5-HT2A = target: T3, 5-HT2A (Homo sapiens, UniProt P28223); test: In vitro pharmacology panel (Eurofins); format: binding; conditions: read-out: activity (% of DMSO control)
T3 construct: purchased Eurofins (Cerep/DiscoverX SafetyScreen44 in vitro pharmacology panel)
Source text: as §1

CB1 = target: T4, CB1 (Homo sapiens, UniProt P21554); test: In vitro pharmacology panel (Eurofins); format: binding; conditions: read-out: activity (% of DMSO control)
T4 construct: purchased Eurofins (Cerep/DiscoverX SafetyScreen44 in vitro pharmacology panel)
Source text: as §1

CCK1 (CCKA) = target: T5, CCK1 (CCKA) (Homo sapiens, UniProt P32238); test: In vitro pharmacology panel (Eurofins); format: binding; conditions: read-out: activity (% of DMSO control)
T5 construct: purchased Eurofins (Cerep/DiscoverX SafetyScreen44 in vitro pharmacology panel)
Source text: as §1

D1 = target: T6, D1 (Homo sapiens, UniProt P21728); test: In vitro pharmacology panel (Eurofins); format: binding; conditions: read-out: activity (% of DMSO control)
T6 construct: purchased Eurofins (Cerep/DiscoverX SafetyScreen44 in vitro pharmacology panel)
Source text: as §1

D2S = target: T7, D2S (Homo sapiens, UniProt P14416); test: In vitro pharmacology panel (Eurofins); format: binding; conditions: read-out: activity (% of DMSO control)
T7 construct: purchased Eurofins (Cerep/DiscoverX SafetyScreen44 in vitro pharmacology panel)
Source text: as §1

ETA = target: T8, ETA (Homo sapiens, UniProt P25101); test: In vitro pharmacology panel (Eurofins); format: binding; conditions: read-out: activity (% of DMSO control)
T8 construct: purchased Eurofins (Cerep/DiscoverX SafetyScreen44 in vitro pharmacology panel)
Source text: as §1

M2 = target: T9, M2 (Homo sapiens, UniProt P08172); test: In vitro pharmacology panel (Eurofins); format: binding; conditions: read-out: activity (% of DMSO control)
T9 construct: purchased Eurofins (Cerep/DiscoverX SafetyScreen44 in vitro pharmacology panel)
Source text: as §1

M3 = target: T10, M3 (Homo sapiens, UniProt P20309); test: In vitro pharmacology panel (Eurofins); format: binding; conditions: read-out: activity (% of DMSO control)
T10 construct: purchased Eurofins (Cerep/DiscoverX SafetyScreen44 in vitro pharmacology panel)
Source text: as §1

MAO-A = target: T11, MAO-A (Rattus norvegicus, UniProt P21396); test: In vitro pharmacology panel (Eurofins); format: binding; conditions: read-out: activity (% of DMSO control)
T11 construct: purchased Eurofins (Cerep/DiscoverX SafetyScreen44 in vitro pharmacology panel)
Source text: as §1

V1 a = target: T12, V1 a (Homo sapiens, UniProt P37288); test: In vitro pharmacology panel (Eurofins); format: binding; conditions: read-out: activity (% of DMSO control)
T12 construct: purchased Eurofins (Cerep/DiscoverX SafetyScreen44 in vitro pharmacology panel)
Source text: as §1

dopamine transporter = target: T13, dopamine transporter (Homo sapiens, UniProt Q01959); test: In vitro pharmacology panel (Eurofins); format: binding; conditions: read-out: activity (% of DMSO control)
T13 construct: purchased Eurofins (Cerep/DiscoverX SafetyScreen44 in vitro pharmacology panel)
Source text: as §1

[4] = target: T14, norepinephrine transporter (Homo sapiens, UniProt P23975); test: In vitro pharmacology panel (Eurofins); format: binding; conditions: read-out: activity (% of DMSO control)
T14 construct: purchased Eurofins (Cerep/DiscoverX SafetyScreen44 in vitro pharmacology panel)
Source text: as §1

α2A = target: T15, α2A (Homo sapiens, UniProt P08913); test: In vitro pharmacology panel (Eurofins); format: binding; conditions: read-out: activity (% of DMSO control)
T15 construct: purchased Eurofins (Cerep/DiscoverX SafetyScreen44 in vitro pharmacology panel)
Source text: as §1

β1 = target: T16, β1 (Homo sapiens, UniProt P08588); test: In vitro pharmacology panel (Eurofins); format: binding; conditions: read-out: activity (% of DMSO control)
T16 construct: purchased Eurofins (Cerep/DiscoverX SafetyScreen44 in vitro pharmacology panel)
Source text: as §1

δ (DOP) = target: T17, δ (DOP) (Homo sapiens, UniProt P41143); test: In vitro pharmacology panel (Eurofins); format: binding; conditions: read-out: activity (% of DMSO control)
T17 construct: purchased Eurofins (Cerep/DiscoverX SafetyScreen44 in vitro pharmacology panel)
Source text: as §1

HepG2 cells = test: MitoXpress oxygen consumption assay; format: cell-based
Procedure: Briefly, HepG2 cells were seeded in 96-well plates in 100 μL of complete media and incubated overnight in an incubator set to maintain approximately (37°C and 5% CO2). […] Oligomycin (5 μM), FCCP (1 μM), or antimycin A or antimycin A/Rotenone (1 μM) were added to additional wells as positive controls. Prewarmed (37°C) 100% mineral oil (100 μL) was immediately added to all wells. The assay plates were transferred to a Perkin Elmer Wallac VICTOR3 System reader for time-resolved fluorescence measurements. Fluorescence (excitation 340 nm/emission 642 nm) was measured every two minutes for approximately 1-2 hrs (or until signal plateau/saturation is reached).
The dual-read time-resolved (T1 = 30 μs and T2 = 70 μs) fluorescence intensity readings (R1 and R2) from the Perkin Elmer Wallac VICTOR3 system (Perkin Elmer) were converted to lifetime fluorescence values as per guidelines detailed in the Agilent MitoXpress Xtra Oxygen Consumption Assay Manual. Calculation of the slope translates to oxygen consumption rate (OCR). Oxygen consumption rate was multiplied by 60 to determine the slope/hour for each assay well.

CYP2C9 = target: T18, CYP2C9 (Homo sapiens, UniProt P11712); test: Cytochrome P450 inhibition, human liver microsomes; format: in vitro ADME
T18 construct: incubation of isoform-specific substrates with human liver microsomes; from tissue; host or cells: human liver microsomes
Source text: The formation of known metabolites mediated by a specific CYP isoform was monitored. CYP isoform-specific pathways (and positive control inhibitors) included CYP1A2: phenacetin O-deethylation (furafylline), CYP2B6: bupropion hydroxylation (PPP), CYP2C8: amodiaquine deethylation (quercetin) CYP2C9: tolbutamide methylhydroxylation (sulfaphenazole), CYP2C19: (S)-mephenytoin 4’-hydroxylation (ticlopidine), CYP2D6: dextromethorphan O-demethylation (quinidine), and CYP3A: midazolam 1’-hydroxylation and testosterone 6β-hydroxylation (ketoconazole). […] The organic solvent content was maintained at less than 1% (v/v). NADPH was added to initiate the reaction which was then quenched by the addition of acetonitrile containing internal standard at specified times. Concentrations of the isoform-specific metabolites were quantified by LC-MS (Waters Xevo TQD triple quadrupole MS coupled to a Waters Acquity UPLC system) relative to calibration standards prepared in pre-quenched microsomal matrix.
Time dependent inhibition was assessed using an “IC50 shift” method based on a previous publication ([44]). […] A shift in the IC50 in the presence of NADPH (relative to the absence) was used as an indication of time dependent inhibition. Reference direct and time-dependent inhibitors were included in the assays.

In vivo pharmacokinetics = test: In vivo pharmacokinetics; parameters: species or system female BALB/c mice; conditions: for AUC(0-t) / AUC / Cmax / Cmax at 5 days: mice, 5 days; for AUC(0-t): read-out: AUC0-24 (first dose); for AUC: read-out: AUC96-120 (last dose); for Cmax: read-out: Cmax (first dose); for Cmax at 5 days: read-out: Cmax (last dose)
[5] = female, BALB/c, mouse, plasma, oral 3.6 mg/kg bid
[6] = female, BALB/c, mouse, plasma, oral 7.1 mg/kg bid
[7] = female, BALB/c, mouse, plasma, oral 12.5 mg/kg bid

T18 sequence (P11712 whole entry, canonical isoform): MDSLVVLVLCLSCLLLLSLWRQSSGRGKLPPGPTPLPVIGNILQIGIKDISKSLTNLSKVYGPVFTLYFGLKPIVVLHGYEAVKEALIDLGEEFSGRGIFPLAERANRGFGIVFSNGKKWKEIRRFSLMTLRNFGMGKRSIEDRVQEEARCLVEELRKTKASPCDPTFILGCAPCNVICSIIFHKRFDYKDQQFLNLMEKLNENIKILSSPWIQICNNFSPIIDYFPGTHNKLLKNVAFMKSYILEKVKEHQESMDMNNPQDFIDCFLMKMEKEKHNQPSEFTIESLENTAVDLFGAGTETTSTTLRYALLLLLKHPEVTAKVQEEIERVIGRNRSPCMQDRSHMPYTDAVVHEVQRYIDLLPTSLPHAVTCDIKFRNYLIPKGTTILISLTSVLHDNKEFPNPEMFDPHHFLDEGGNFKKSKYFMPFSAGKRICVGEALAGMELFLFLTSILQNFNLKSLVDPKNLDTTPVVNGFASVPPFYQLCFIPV
T4 sequence (P21554 whole entry): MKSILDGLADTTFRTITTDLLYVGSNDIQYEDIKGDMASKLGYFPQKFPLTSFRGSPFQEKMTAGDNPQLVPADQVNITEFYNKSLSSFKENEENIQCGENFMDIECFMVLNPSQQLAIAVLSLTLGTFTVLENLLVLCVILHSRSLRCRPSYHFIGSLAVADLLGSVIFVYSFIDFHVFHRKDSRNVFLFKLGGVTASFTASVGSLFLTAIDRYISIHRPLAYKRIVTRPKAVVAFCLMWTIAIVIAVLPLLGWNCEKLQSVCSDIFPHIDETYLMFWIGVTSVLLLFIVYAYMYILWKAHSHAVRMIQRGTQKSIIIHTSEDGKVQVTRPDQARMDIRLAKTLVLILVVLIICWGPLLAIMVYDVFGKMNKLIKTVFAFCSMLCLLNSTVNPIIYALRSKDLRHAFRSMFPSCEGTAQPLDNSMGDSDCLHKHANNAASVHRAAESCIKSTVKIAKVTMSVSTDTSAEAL
T5 sequence (P32238 whole entry): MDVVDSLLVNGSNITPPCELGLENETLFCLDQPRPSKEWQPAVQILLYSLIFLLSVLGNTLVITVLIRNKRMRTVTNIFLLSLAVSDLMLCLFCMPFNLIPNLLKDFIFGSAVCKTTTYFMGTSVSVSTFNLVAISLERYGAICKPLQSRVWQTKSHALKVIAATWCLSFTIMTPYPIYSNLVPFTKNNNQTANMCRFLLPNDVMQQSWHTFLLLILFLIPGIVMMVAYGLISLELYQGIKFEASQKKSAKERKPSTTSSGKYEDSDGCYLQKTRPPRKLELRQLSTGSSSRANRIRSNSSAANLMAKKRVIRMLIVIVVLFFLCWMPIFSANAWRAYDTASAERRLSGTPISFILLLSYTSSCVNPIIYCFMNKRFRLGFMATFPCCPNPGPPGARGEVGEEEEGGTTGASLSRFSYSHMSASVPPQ
T17 sequence (P41143 whole entry): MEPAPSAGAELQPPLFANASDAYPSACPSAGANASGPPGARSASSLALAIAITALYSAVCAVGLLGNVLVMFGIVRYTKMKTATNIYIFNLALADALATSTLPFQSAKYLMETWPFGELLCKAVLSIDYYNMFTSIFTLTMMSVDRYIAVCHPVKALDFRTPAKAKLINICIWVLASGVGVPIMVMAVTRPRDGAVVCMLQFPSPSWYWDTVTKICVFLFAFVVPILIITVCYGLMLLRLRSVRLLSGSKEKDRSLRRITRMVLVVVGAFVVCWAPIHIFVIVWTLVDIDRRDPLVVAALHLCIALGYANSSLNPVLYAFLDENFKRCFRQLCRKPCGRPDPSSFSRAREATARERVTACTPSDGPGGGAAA
T7 sequence (P14416 1-414 isoform P14416-2): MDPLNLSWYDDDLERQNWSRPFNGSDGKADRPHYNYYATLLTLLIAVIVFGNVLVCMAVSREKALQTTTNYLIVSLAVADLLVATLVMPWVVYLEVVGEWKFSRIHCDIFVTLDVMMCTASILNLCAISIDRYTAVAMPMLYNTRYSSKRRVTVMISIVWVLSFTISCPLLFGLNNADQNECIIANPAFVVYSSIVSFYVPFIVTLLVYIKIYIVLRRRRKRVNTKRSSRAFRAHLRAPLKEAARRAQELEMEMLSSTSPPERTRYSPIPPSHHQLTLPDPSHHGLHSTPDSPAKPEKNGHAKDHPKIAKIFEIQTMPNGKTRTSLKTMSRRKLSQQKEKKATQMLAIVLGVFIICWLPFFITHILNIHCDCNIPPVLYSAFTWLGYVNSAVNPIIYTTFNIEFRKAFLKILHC
T3 sequence (P28223 whole entry): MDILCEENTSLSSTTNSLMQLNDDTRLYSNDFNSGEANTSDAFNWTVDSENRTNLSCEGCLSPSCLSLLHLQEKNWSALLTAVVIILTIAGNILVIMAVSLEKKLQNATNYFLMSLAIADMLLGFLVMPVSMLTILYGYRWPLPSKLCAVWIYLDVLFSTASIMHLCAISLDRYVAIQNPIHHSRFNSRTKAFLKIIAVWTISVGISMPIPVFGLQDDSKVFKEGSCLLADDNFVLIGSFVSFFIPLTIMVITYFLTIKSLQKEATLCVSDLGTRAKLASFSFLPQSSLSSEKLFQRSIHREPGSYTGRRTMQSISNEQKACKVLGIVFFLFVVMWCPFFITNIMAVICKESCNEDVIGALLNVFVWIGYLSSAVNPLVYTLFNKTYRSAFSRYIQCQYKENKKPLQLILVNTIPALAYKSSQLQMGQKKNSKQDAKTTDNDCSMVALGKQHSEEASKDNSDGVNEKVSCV
T14 sequence (P23975 whole entry): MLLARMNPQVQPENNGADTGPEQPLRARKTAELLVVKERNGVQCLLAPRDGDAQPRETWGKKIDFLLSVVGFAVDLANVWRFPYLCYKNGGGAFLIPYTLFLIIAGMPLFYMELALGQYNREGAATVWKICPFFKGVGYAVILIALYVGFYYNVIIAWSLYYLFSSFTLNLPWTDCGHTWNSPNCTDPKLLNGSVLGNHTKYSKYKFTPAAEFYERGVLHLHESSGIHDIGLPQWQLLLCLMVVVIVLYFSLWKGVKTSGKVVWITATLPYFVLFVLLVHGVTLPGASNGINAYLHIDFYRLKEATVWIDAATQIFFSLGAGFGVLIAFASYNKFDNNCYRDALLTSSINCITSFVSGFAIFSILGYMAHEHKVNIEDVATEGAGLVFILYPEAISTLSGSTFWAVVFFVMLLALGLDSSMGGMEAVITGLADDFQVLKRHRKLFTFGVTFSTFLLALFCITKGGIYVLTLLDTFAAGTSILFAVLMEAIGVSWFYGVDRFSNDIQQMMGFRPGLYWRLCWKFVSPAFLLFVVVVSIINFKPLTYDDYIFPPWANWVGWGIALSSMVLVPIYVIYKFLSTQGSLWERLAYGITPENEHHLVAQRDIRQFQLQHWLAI
T1 sequence (P08908 whole entry): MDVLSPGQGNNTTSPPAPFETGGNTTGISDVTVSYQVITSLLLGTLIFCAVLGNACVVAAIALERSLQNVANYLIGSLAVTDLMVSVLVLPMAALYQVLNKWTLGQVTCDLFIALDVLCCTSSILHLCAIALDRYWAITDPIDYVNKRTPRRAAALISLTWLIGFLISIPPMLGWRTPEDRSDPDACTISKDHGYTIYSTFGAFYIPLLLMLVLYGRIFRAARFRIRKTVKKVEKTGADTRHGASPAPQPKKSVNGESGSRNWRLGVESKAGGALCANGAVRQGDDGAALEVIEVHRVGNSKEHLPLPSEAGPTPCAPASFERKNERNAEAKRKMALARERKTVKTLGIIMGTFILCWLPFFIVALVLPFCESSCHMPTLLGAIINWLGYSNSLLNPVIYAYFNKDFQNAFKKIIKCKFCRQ
T10 sequence (P20309 whole entry): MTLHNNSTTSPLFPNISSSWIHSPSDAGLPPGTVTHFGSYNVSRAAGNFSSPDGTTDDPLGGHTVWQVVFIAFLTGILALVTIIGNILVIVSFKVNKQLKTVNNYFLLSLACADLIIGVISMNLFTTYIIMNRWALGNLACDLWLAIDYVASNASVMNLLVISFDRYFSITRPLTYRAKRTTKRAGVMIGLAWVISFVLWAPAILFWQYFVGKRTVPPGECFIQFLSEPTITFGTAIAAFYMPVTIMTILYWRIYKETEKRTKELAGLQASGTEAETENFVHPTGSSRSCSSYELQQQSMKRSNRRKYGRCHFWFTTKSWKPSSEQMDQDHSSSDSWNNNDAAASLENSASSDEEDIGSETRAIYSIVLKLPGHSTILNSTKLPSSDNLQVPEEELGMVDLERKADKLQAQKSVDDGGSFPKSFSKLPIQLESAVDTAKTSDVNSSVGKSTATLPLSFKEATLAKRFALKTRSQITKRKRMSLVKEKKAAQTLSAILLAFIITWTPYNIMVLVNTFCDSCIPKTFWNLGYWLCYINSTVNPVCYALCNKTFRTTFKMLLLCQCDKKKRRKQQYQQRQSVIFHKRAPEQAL
T8 sequence (P25101 21-427): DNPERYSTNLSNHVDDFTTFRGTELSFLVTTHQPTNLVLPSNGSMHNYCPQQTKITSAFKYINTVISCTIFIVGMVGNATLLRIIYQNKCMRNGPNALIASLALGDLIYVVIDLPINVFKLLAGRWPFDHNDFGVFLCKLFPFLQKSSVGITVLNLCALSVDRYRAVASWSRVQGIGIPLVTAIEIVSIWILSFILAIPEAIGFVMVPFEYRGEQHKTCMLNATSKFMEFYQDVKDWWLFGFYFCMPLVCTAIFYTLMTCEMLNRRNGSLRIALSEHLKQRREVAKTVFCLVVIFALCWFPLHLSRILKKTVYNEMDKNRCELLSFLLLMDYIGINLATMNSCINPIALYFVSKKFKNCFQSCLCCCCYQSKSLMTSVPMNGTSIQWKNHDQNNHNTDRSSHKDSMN

For Cc1[nH]c2nc(N)nc(C)c2c1-c1ccc(C#N)c2c1OCO2 [DNDI-6174], which “unbound ED95” value (L. infantum) is on record?
The value was 3.6.

What about the CC50 [1] of the same molecule?
Its CC50 is > 64 µM.

And the CC50 [2]?
Its CC50 is > 64 µM.

And the “mutagenic potential (AMES), in words” value [3]?
The value was “did not show intrinsic mutagenic potential”.

What about the “genotoxicity, in words” value (CHO-K1 cells) of the same molecule?
Its value is “not genotoxic”.

What about the remaining activity at 10 µM (5-HT1A) of the same molecule?
Its remaining activity at 10 µM is 107%.

What about the remaining activity at 10 µM (5-HT1B) of the same molecule?
Its remaining activity at 10 µM is 91.4%.

What about the remaining activity at 10 µM (5-HT2A) of the same molecule?
The remaining activity at 10 µM was 93.9%.

What about the remaining activity at 10 µM (CB1) of the same molecule?
Its remaining activity at 10 µM is 104%.

And the remaining activity at 10 µM (CCK1 (CCKA))?
The remaining activity at 10 µM was 126%.

And the remaining activity at 10 µM (D1)?
The remaining activity at 10 µM was 63.1%.

What about the remaining activity at 10 µM (D2S) of the same molecule?
Its remaining activity at 10 µM is 77.6%.

And the remaining activity at 10 µM (ETA)?
The remaining activity at 10 µM was 103%.

And the remaining activity at 10 µM (M2)?
The remaining activity at 10 µM was 92.9%.

And the remaining activity at 10 µM (M3)?
The remaining activity at 10 µM was 98.5%.

What about the remaining activity at 10 µM (MAO-A) of the same molecule?
The remaining activity at 10 µM was 94.3%.

And the remaining activity at 10 µM (V1 a)?
The remaining activity at 10 µM was 101%.

What about the remaining activity at 10 µM (dopamine transporter) of the same molecule?
Its remaining activity at 10 µM is 60.6%.

What about the remaining activity at 10 µM [4] of the same molecule?
Its remaining activity at 10 µM is 81.9%.

And the remaining activity at 10 µM (α2A)?
Its remaining activity at 10 µM is 60.3%.

And the remaining activity at 10 µM (β1)?
Its remaining activity at 10 µM is 113%.

What about the remaining activity at 10 µM (δ (DOP)) of the same molecule?
The remaining activity at 10 µM was 102%.

And the “concentrations at which oxygen consumption was reduced” value (HepG2 cells)?
Its value is ≥ 66 µM.

And the “margin of MitoExpress no-effect concentration over free concentration at predicted human therapeutic plasma Cmax” value (HepG2 cells)?
Its value is “approximately 57 fold”.

What about the “maximum reduction of oxygen consumption” value (HepG2 cells; 200 μM (highest tested)) of the same molecule?
Its value is 28%.

And the IC50 (CYP2C9; CYP2C9, read-out: Direct inhibition IC50)?
Its IC50 is 14.9 µM.

And the IC50 (CYP2C9; without NADPH preincubation, read-out: Time-dependent inhibition IC50)?
The IC50 was 13.8 µM.

And the “increase in Cmax over the 5-day dosing period” value (In vivo pharmacokinetics; bid dosing in mice)?
The value was “approximately 2 fold”.

What about the clearance (In vivo pharmacokinetics; female, BALB/c, mouse, plasma, iv, 2 mg/kg, Mouse, read-out: Measured in vivo CLplasma) of the same molecule?
Its clearance is 7.5 mL/min/kg.

What about the AUC(0-t) (In vivo pharmacokinetics; [5]) of the same molecule?
The AUC(0-t) was 10600 ng·h/mL.

And the AUC (In vivo pharmacokinetics; [5])?
The AUC was 15700 ng·h/mL.

And the Cmax (In vivo pharmacokinetics; [5])?
Its Cmax is 600 ng/mL.

And the Cmax at 5 days (In vivo pharmacokinetics; [5])?
Its Cmax at 5 days is 1350 ng/mL.

And the AUC(0-t) (In vivo pharmacokinetics; [6])?
Its AUC(0-t) is 35500 ng·h/mL.

And the AUC (In vivo pharmacokinetics; [6])?
Its AUC is 37000 ng·h/mL.

What about the Cmax (In vivo pharmacokinetics; [6]) of the same molecule?
Its Cmax is 1930 ng/mL.

And the Cmax at 5 days (In vivo pharmacokinetics; [6])?
The Cmax at 5 days was 3040 ng/mL.

And the AUC(0-t) (In vivo pharmacokinetics; [7])?
Its AUC(0-t) is 94500 ng·h/mL.

And the AUC (In vivo pharmacokinetics; [7])?
The AUC was 93300 ng·h/mL.

And the Cmax (In vivo pharmacokinetics; [7])?
Its Cmax is 3830 ng/mL.

And the Cmax at 5 days (In vivo pharmacokinetics; [7])?
The Cmax at 5 days was 6810 ng/mL.

And the AUC(0-inf) (In vivo pharmacokinetics; female, BALB/c, plasma, Mouse, intravenous 2.0 mg/kg, read-out: Plasma AUC0-inf)?
Its AUC(0-inf) is 4470 ng·h/mL.

What about the half-life (In vivo pharmacokinetics; female, BALB/c, plasma, Mouse, oral 25 mg/kg, read-out: Apparent t1/2 (converted)) of the same molecule?
The half-life was 222 min.

What about the AUC(0-inf) (In vivo pharmacokinetics; female, BALB/c, plasma, Mouse, oral 25 mg/kg, read-out: Plasma AUC0-∞) of the same molecule?
Its AUC(0-inf) is 75500 ng·h/mL.
